# Where two headings read alike, the source gives them in different places.
# Assays:
# Assay in all cases: In vitro inhibition of p38 kinase (LANCE Ultra TR-FRET)
# Format in all cases: biochemical
# [1] = target: p38α (Homo sapiens, UniProt Q16539)
# [2] = target: p38β (Homo sapiens, UniProt Q15759)
# [3] = target: T1, p38γ (Homo sapiens, UniProt P53778)
# T1 sequence (P53778 1-367): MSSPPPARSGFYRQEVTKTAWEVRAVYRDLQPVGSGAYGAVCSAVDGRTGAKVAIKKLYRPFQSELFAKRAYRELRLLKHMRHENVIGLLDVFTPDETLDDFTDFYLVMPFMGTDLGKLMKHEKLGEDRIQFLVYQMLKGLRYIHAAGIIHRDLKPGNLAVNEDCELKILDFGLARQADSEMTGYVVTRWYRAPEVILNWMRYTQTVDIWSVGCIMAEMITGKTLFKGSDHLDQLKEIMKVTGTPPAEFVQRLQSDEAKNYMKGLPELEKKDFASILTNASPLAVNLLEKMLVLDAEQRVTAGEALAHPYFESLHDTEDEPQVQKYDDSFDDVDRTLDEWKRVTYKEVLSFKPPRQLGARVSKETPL
# Description: 10 mM of the storage solution of the test compound was taken and placed in a 96-well compound plate, and using DMSO for the compound at an initial concentration of 100×, which was then used as the first concentration and then carried out a 3-fold gradient dilution with DMSO for a total of 10 concentrations. After that, 1 μL of gradient dilutions were added to 19 μL of 1× reaction buffer to prepare 5× compound for later use. […] To the compound-free control well was added 2 μL of the following liquid: 19 μL of 1× reaction buffer with addition of 1 μL of DMSO. To the Min control well was added 2 μL of 250 mM EDTA.
# 1× of LANCE® Detection value Buffer was used to prepare a 2×Antibody for use, and the amount was 5 μL per well, at the same time 10 mM EDTA was prepared for later use. After the enzyme reaction was carried out for 30 minutes, 5 μL 10 mM EDTA was added to the 384-well plate and the reaction was carried out at room temperature for 5 minutes. Afterwards, 5 μL LANCE® Ultra Europium-anti-phospho-eIF4E-binding protein 1 (Thr37/46) was added to the 384-well plate and the reaction was carried out at room temperature for one hour.
# [4] = read-out: Kinase in vitro IC50(nM) p38α
# [5] = read-out: Kinase in vitro IC50(nM) p38β
# [6] = read-out: Kinase in vitro IC50(nM) p38γ
# Chain of p38α (Q16539 whole entry): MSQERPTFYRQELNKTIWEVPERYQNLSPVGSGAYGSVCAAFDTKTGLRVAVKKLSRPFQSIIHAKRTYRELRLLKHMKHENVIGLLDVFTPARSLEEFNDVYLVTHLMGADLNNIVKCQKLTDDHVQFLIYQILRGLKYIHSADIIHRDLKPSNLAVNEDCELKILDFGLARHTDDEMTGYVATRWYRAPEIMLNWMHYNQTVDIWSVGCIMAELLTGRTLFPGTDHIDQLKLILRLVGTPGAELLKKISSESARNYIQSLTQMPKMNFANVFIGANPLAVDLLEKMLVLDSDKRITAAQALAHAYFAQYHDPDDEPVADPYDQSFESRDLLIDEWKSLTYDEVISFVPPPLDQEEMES
# Chain of p38β (Q15759 whole entry): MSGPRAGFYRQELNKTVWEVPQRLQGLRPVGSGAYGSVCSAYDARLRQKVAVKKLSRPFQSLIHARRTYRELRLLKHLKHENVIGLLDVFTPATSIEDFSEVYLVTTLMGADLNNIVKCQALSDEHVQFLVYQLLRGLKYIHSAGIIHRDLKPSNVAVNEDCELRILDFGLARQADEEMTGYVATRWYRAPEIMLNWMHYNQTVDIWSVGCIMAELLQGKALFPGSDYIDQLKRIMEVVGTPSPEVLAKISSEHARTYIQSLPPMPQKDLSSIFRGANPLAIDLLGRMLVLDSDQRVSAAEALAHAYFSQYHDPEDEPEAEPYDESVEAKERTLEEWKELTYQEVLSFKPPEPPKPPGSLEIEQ
Compound,"IC50 [1, 4]","IC50 [2, 5]","IC50 [3, 6]",IC50 [1],IC50 [2],IC50 [3]
"N#Cc1ccc(Oc2ccc3c(-c4c(Cl)cccc4Cl)c(=O)ncn3n2)cc1 [Compound I-26, 4-((5-(2,6-dichlorophenyl)-6-oxo-6H-pyrimido[1,6-b]pyridazin-2-yl)oxy)benzonitrile]",> 3330 nM,> 3330 nM,> 3330 nM,–,–,–
"O=c1ncn2nc(OC3CCCC=C3Cl)ccc2c1-c1c(Cl)cccc1Cl (stereo not drawn) [Compound I-42, 2-((2-chlorocyclohex-2-en-1-yl)oxy)-5-(2,6-dichlorophenyl)-6H-pyrimido[1,6-b]pyridazin-6-one]",228 nM,686 nM,> 3330 nM,–,–,–
"CCOc1ccc2c(-c3c(Cl)cccc3Cl)c(=O)ncn2n1 [Compound I-7, 5-(2,6-dichlorophenyl)-2-ethoxy-6H-pyrimido[1,6-b]pyridazin-6-one]",1680 nM,> 3330 nM,> 3330 nM,–,–,–
"O=c1ncn2nc(OC3CCOC3)ccc2c1-c1c(Cl)cccc1Cl (stereo not drawn) [Compound I-3, 5-(2,6-dichlorophenyl)-2-((tetrahydrofuran-3-yl)oxy)-6H-pyrimido[1,6-b]pyridazin-6-one]",> 3330 nM,> 3330 nM,> 3330 nM,–,–,–
"O=c1ncn2nc(OCC(F)F)ccc2c1-c1c(Cl)cccc1Cl [Compound I-8, 5-(2,6-dichlorophenyl)-2-(2,2-difluoroethoxy)-6H-pyrimido[1,6-b]pyridazin-6-one]",> 3330 nM,> 3330 nM,> 3330 nM,–,–,–
"O=c1ncn2nc(OC3CC(F)(F)C3)ccc2c1-c1c(Cl)cccc1Cl [Compound I-1, 5-(2,6-dichlorophenyl)-2-(3,3-difluorocyclobutoxy)-6H-pyrimido[1,6-b]pyridazin-6-one]",–,–,–,> 3330 nM,> 3330 nM,> 3330 nM
"O=c1ncn2nc(Oc3ccc(F)cc3F)ccc2c1-c1c(F)cc(F)cc1F [Compound I-57, 5-(2,4,6-trifluorophenyl)-2-(2,4-difluorophenoxy)-6H-pyrimido[1,6-b]pyridazin-6-one]",22.7 nM,614 nM,> 3330 nM,–,–,–
"COC(=O)c1ccc(OC)c(-c2c(=O)ncn3nc(Oc4ccc(F)cc4F)ccc23)c1 [Compound I-55, methyl 3-[2-(2,4-difluorophenoxy)-6-oxo-pyrimido[1,6-b]pyridazin-5-yl]-4-methoxybenzoate]",17.7 nM,117 nM,> 3330 nM,–,–,–
"O=c1ncn2nc(OC3CC=CC3)ccc2c1-c1c(Cl)cccc1Cl [Compound I-38, 2-(cyclopent-3-en-1-yloxy)-5-(2,6-dichlorophenyl)-6H-pyrimido[1,6-b]pyridazin-6-one]",414 nM,2160 nM,> 3330 nM,–,–,–
"O=c1ncn2nc(Oc3cccc(F)c3)ccc2c1-c1c(Cl)cccc1Cl [Compound I-25, 5-(2,6-dichlorophenyl)-2-(3-fluorophenoxy)-6H-pyrimido[1,6-b]pyridazin-6-one]",151 nM,1430 nM,> 3330 nM,–,–,–
"O=c1ncn2nc(OCC(F)(F)F)ccc2c1-c1c(Cl)cccc1Cl [Compound I-13, 5-(2,6-dichlorophenyl)-2-(2,2,2-trifluoroethoxy)-6H-pyrimido[1,6-b]pyridazin-6-one]",> 3330 nM,> 3330 nM,> 3330 nM,–,–,–
O=c1ncn2nc(Oc3ccc(Cl)cc3)ccc2c1-c1c(Cl)cccc1Cl [Compound I-33],24 nM,470 nM,> 3330 nM,–,–,–
"O=c1ncn2nc(OC3C=CCCC3)ccc2c1-c1c(Cl)cccc1Cl (stereo not drawn) [Compound I-37, 2-(cyclohex-2-en-1-yloxy)-5-(2,6-dichlorophenyl)-6H-pyrimido[1,6-b]pyridazin-6-one]",503 nM,2830 nM,> 3330 nM,–,–,–
"O=c1ncn2nc(OC3CCOCC3)ccc2c1-c1c(Cl)cccc1Cl [Compound I-2, 5-(2,6-dichlorophenyl)-2-((tetrahydro-2H-pyran-4-yl)oxy)-6H-pyrimido[1,6-b]pyridazin-6-one]",2690 nM,> 3330 nM,> 3330 nM,–,–,–
"O=c1ncn2nc(Oc3ccc(F)cc3F)c(N3CCOCC3)cc2c1-c1c(Cl)cccc1Cl [Compound I-61, 5-(2,6-dichlorophenyl)-2-(2,4-difluorophenoxy)-3-morpholinyl-6H-pyrimido[1,6-b]pyridazin-6-one]",11.7 nM,32.7 nM,> 3330 nM,–,–,–
"O=c1ncn2nc(Oc3cncc(F)c3)ccc2c1-c1c(Cl)cccc1Cl [Compound I-24, 5-(2,6-dichlorophenyl)-2-((5-fluoropyridin-3-yl)oxy)-6H-pyrimido[1,6-b]pyridazin-6-one]",1980 nM,> 3330 nM,> 3330 nM,–,–,–

# Further lines, with some results ahead:
"IC50 [1, 4]","IC50 [2, 5]","IC50 [3, 6]",Compound,IC50 [1],IC50 [2],IC50 [3]
14.1 nM,213 nM,> 3330 nM,"O=c1ncn2nc(Oc3ccc(F)cc3F)ccc2c1-c1c(F)cccc1F [Compound I-49, 2-(2,4-difluorophenoxy)-5-(2,6-difluorophenyl)-6H-pyrimido[1,6-b]pyridazin-6-one]",–,–,–
> 3330 nM,> 3330 nM,> 3330 nM,"CC(Oc1ccc2c(-c3c(Cl)cccc3Cl)c(=O)ncn2n1)c1ccc(F)cc1F (stereo not drawn) [Compound I-41, 5-(2,6-dichlorophenyl)-2-(1-(2,4-difluorophenyl)ethoxy)-6H-pyrimido[1,6-b]pyridazin-6-one]",–,–,–
35.4 nM,643 nM,> 3330 nM,"Cc1cccc(C)c1-c1c(=O)ncn2nc(Oc3ccc(F)cc3F)ccc12 [Compound I-45, 2-(2,4-difluorophenoxy)-5-(2,6-dimethylphenyl)-6H-pyrimido[1,6-b]pyridazin-6-one]",–,–,–
19.6 nM,479 nM,> 3330 nM,"O=c1ncn2nc(Oc3ccc(F)cc3F)ccc2c1-c1ccc(Cl)cc1Cl [Compound I-56, 5-(2,4-dichlorophenyl)-2-(2,4-difluorophenoxy)-6H-pyrimido[1,6-b]pyridazin-6-one]",–,–,–
49.8 nM,389 nM,> 3330 nM,"Cc1cc(Cl)ccc1Oc1ccc2c(-c3c(Cl)cccc3Cl)c(=O)ncn2n1 [Compound I-34, 2-(4-chloro-2-methylphenoxy)-5-(2,6-dichlorophenyl)-6H-pyrimido[1,6-b]pyridazin-6-one]",–,–,–
54.2 nM,947 nM,> 3330 nM,"O=c1ncn2nc(Oc3ccc(F)cc3F)ccc2c1-c1cccc(Cl)c1Cl [Compound I-52, 5-(2,3-dichlorophenyl)-2-(2,4-difluorophenoxy)-6H-pyrimido[1,6-b]pyridazin-6-one]",–,–,–
38.8 nM,> 3330 nM,> 3330 nM,"Cc1cc(F)ccc1Oc1ccc2c(-c3c(Cl)cccc3Cl)c(=O)ncn2n1 [Compound I-28, 5-(2,6-dichlorophenyl)-2-(4-fluoro-2-methylphenoxy)-6H-pyrimido[1,6-b]pyridazin-6-one]",–,–,–
17.5 nM,256 nM,> 3330 nM,"CNC(=O)c1ccc(Cl)c(-c2c(=O)ncn3nc(Oc4ccc(F)cc4F)ccc23)c1 [Compound I-51, 4-chloro-3-(2-(2,4-difluorophenoxy)-6-oxo-6H-pyrimido[1,6-b]pyridazin-5-yl)-N-methylbenzamide]",–,–,–
137 nM,> 3330 nM,> 3330 nM,"O=c1ncn2nc(Oc3ccc(F)cc3F)ccc2c1-c1ccc(Cl)c(Cl)c1 [Compound I-58, 5-(3,4-dichlorophenyl)-2-(2,4-difluorophenoxy)-6H-pyrimido[1,6-b]pyridazin-6-one]",–,–,–

# Source: patent US20220048915A1 (SHANGHAI PHARMACEUTICALS HOLDING CO., LTD., priority 2018, published 2022)
